From patent publication US20030177534A1, “Plant glutamine:fructose-6-phosphate amidotransferase nucleic acids” (Pioneer Hi-Bred International, Inc., priority 1998, published 2003) come the findings set out here.

For assay [1], the system named is yeast glycogen synthase (YGS). The assay can be described thus: Activity assay of the yeast glycogen synthase (YGS) overexpressed in Pichia. Format: biochemical. The conditions noted are these: 6.7 mM UDP glucosamine, 1 mM maltoheptose, 30° C., 1 hour; preliminary results. The protocol: 6. Activity Assay of the Yeast Glycogen Synthase (YGS)
The last reaction: synthesis of cationic starch by the yeast glycogen synthase overexpressed in Pichia using UDPgluosamine and glucosyl oligosaccharide primers: […]
UDP glucosamine+starch→starch periodically interspersed with 2 amino anhydroglucose
The YGS produced from secreted expression in Pichia was isolated from the growth medium, desalted into a buffer containing 50 mM Tris-HCl and 5 mM EDTA, pH 7.8, and concentrated using Centricon-30 concentrator. The preparation was used for assaying the activity of YGS.
50 mM Tris-HCl and 5 mM EDTA, pH 7.8
6.7 mM UDP glucose or UDP glucosamine
6.7 mM glucose-6-phosphate
1 mM maltoheptose ([…], from Sigma)
Protein prep: 150 μg/300-μl reaction
Incubated at 30° C. for 1 hour.
Analyze by HPLC using Dionex's CarboPac-PA1 column with a pulsed amperometry detector (to detect the formation of elongated glusyl oligo primers);

In assay [2] the test system is Phosphoglucomutase (PGM). The assay can be described thus: Activity assay of phosphoglucomutase (PGM), maize endosperm protein extract. Format: biochemical. The following applies: extract from immature seeds, 20 days after pollination, HPLC. As for the experimental part:
(§1) 3. Activity Assay of Phosphoglucomutase (PGM)
(§2) glucosamine-6-phosphate→glucosamine-1-phosphate
(§3) 80 mM triethanolamine, pH 7.6
(§4) 20 μM glucosae-1,6-bisphosphate
(§5) 2 mM glucosamine-1-phosphate or glucosamine-6-phosphate
Maize endosperm protein extract (200-μg total protein per 1.0 ml reaction)
Ground kernels in ice-cold homogenization buffer (50 mM KH2PO4, pH 7.0; 5 mM EDTA; and 1 mM
DTT). Kernels were dissected from an ear (HN18) harvested 20 days after pollination.
Filtered the homogenate through 4-layer cheesecloth, and centrifuged at 25,000×g for 20 min at 4° C.
Desalted the supernatant into the homogenization buffer using a fast FPLC desalting column and collected the flow through.
Added PMSF and chymostatin to a final concentration of 1 mM and used the flow-through as crude PGM prep for the assay.
(§6) Incubated at 30° C. for 15 min.
(§7) * Transferred to a Centricon-30 concentrator and centrifuged at 1,400× for 20 min.
(§8) Removed 100 μl of the filtrate and added 400-μl water.
(§9) Injected 50 μl onto Dionex's CarboPac PA1 column and detected with a pulsed amperometry detector.
(§10) Eluted with 100 mM NaOH and 100 mM NaOH/1M sodium acetate (to detect formation of glucosamine-6-phosphate or glucosamine-1-phosphate): […]

The target in assay [3] is T1, PGM from rabbit muscle (Oryctolagus cuniculus, UniProt P00949).
T1 construct: Commercial PGM from rabbit muscle; purchased Boehringer Mannheim 108375; host or cells: rabbit muscle
T1 sequence (P00949 1-562): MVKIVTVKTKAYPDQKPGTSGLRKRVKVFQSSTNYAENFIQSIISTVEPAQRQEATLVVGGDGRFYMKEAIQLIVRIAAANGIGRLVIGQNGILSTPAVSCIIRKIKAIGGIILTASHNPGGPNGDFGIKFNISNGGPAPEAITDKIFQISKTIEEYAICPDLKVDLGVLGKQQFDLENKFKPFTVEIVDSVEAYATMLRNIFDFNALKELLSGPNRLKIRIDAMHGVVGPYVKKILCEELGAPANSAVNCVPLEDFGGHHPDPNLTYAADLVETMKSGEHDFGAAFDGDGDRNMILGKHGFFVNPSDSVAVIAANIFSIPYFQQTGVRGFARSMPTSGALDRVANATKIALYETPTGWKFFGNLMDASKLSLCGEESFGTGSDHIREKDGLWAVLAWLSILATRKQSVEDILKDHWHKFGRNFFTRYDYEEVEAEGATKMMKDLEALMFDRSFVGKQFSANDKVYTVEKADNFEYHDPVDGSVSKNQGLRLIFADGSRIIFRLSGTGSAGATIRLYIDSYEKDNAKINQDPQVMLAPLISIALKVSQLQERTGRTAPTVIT
As to the kind of experiment: Activity assay of phosphoglucomutase (PGM), commercial rabbit muscle PGM. The conditions noted are these: HPLC; for conversion of substrate by rabbit muscle PGM (glucosamine-1-phosphate to glucosamine-6-phosphate or reverse): 2 mM substrate, 30° C., 15 min, at completion/end of reaction. The class given is biochemical. As for the experimental part:
as §1, §2, §3, §4, §5
Commercial PGM from rabbit muscle (Boehringer Mannheim, Catalog No. 108375)
as §6, §7, §8, §9, §10

The subject of assay [4] is UGPase. The assay can be described thus: UGPase activity in the maize endosperm protein extract. Format: biochemical. The following applies: extract from seeds harvested 20 days after pollination. The protocol:
For UGPase Activity in the Maize Endosperm
Weighted 8-g GS3 kernels (20 days after pollination);
Added 0.5-ml Boehringer's protease inhibitor cocktail (one tablet dissolved in 1-ml water);
Blended for 10 sec, 3×at 4° C.;
Filtered through three layers of Cheesecloth at 4° C.;
Passed two 100-μl aliquots through a BioRad's BioSpin-30 column using a swing bucked rotor in Jouan at 2100 rpm, at RT, & repeated (i.e. two Bio-Spin-30 columns used for each of the 2, 100-μl aliquots);
(§11) 48 mM Tris-HCl, pH 8.5; 19 mM MgCl2; 2.3 mM β-mercaptoethanol; 1 mM UTP; inorganic pyrophosphorylase; 2 mM glucose-1-P or glucosamine-1-P;
(§12) Carried out the reactions at 30° C. for 30 minutes;
(§13) Boiled for 5 min and passed through Centrion-10;

Assay [5] concerns the target T2, Baker yeast UGPase (Saccharomyces cerevisiae, UniProt P32861).
T2 construct: UDP-glucose pyrophorylases purified from Bakers yeast (U 8501); purchased Sigma U 8501; host or cells: Bakers yeast
T2 sequence (P32861 1-499): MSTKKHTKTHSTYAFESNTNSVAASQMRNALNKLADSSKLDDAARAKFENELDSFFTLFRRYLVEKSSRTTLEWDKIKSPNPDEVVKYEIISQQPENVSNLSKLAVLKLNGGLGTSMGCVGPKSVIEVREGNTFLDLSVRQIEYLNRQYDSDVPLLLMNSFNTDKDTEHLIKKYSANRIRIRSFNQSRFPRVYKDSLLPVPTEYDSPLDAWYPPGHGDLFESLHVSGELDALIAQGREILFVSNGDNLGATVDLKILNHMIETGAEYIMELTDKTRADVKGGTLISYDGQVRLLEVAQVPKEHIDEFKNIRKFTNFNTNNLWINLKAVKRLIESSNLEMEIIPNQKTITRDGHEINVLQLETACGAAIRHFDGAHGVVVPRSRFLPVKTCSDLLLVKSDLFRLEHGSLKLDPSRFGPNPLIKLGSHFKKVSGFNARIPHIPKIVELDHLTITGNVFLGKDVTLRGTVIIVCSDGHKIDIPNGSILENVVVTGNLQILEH
As to the kind of experiment: Activity assay of UDPglucose pyrophosphorylase (UGPase), Baker yeast enzyme. The conditions noted are these: 2 mM substrate, 1 mM UTP, 30° C., 30 minutes, HPLC. The class given is biochemical, Bakers yeast. As for the experimental part: (§14) 4. Activity Assay of UDPglucose Pyrophosporylase (UGPase) [drawing 1]
(§15) The above reaction is evaluated with an alternative substrate, glucosamine-1-phosphate.
(§16) Enzymes: UDP-glucose pyrophorylases purified from Bakers yeast (U 8501) & bovine liver (U 5877) by Sigma;
(§17) UGPase assay was conducted per protocals used by Sigma;
50 mM Tris-HCl, pH 7.6; 16 mM MgCl2; 10 mM L-cystein, 1 mM UTP; inorganic pyrophosphorylase; 2 mM glucose-1-P or glucosamine-1-P;
as §12, §13

Assay [6] has as its target T3, bovine liver UGPase (Bos taurus, UniProt Q07130).
T3 construct: purchased Sigma U 5877; host or cells: bovine liver
T3 sequence (Q07130 1-508): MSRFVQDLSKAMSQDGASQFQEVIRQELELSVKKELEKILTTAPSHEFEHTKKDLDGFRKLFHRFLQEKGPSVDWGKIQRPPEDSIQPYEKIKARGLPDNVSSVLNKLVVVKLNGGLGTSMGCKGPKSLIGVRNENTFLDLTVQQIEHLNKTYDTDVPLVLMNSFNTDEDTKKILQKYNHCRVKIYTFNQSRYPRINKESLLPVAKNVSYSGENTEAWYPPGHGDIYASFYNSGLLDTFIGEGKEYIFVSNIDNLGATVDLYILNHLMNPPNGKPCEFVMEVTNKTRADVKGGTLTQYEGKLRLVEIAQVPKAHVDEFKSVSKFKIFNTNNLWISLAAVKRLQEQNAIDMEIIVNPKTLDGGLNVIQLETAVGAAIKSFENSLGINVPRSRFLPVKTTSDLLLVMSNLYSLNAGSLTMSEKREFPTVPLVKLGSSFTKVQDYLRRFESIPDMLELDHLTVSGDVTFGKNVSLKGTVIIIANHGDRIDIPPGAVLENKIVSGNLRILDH
As to the kind of experiment: Activity assay of UDPglucose pyrophosphorylase (UGPase), bovine liver enzyme. The class given is biochemical. The following applies: 2 mM substrate, 1 mM UTP, 30° C., 30 minutes, HPLC. The protocol: as §14, §15, §16, §17, §11, §12, §13

On to `N[C@H]1[C@@H](OP(=O)(O)OP(=O)(O)OC[C@H]2O[C@@H](n3ccc(=O)[nH]c3=O)[C@H](O)[C@@H]2O)O[C@H](CO)[C@@H](O)[C@@H]1O` [UDP glucosamine], for which the “substrate recognition, transfer of glucosaminyl moiety to glucosyl oligo primers” value in assay [1] was “recognize UDP glucosamine as a substrate”.
For the molecule `O=P(O)(O)O[C@H]1O[C@H](CO)[C@@H](O)[C@H](O)[C@H]1O` [glucose-1-phosphate], in assay [2], the “use of substrate by PGM in maize endosperm extract (result in words)” value is “near complete conversion”. Further, the “use of substrate by rabbit muscle PGM (result in words)” value in assay [3] (positive control, formation of glucose-6-phosphate) was “nearly depleted”.
For `N[C@H]1C(O)O[C@H](COP(=O)(O)O)[C@@H](O)[C@@H]1O` (stereo partly drawn) [glucosamine-6-phosphate], in assay [3], the “conversion of substrate by rabbit muscle PGM (glucosamine-1-phosphate to glucosamine-6-phosphate or reverse)” value was “about 70%”.
In the case of `N[C@H]1C(OP(=O)(O)O)O[C@H](CO)[C@@H](O)[C@@H]1O` (stereo partly drawn) [glucosamine-1-phosphate], the “activity in using substrate to form UDP glucosamine” value in assay [4] is “also found in maize endosperm protein extract”. Moreover, the “use of substrate by PGM in maize endosperm extract (result in words)” value in assay [2] was “Glucosamine-6-phosphate was detected”. In addition, the “substrate recognition in formation of UDP glucosamine” value in assay [5] and in assay [6] was “recognized glucosamine-1-P as a substrate” each time. Besides, in assay [3], the “conversion of substrate by rabbit muscle PGM (glucosamine-1-phosphate to glucosamine-6-phosphate or reverse)” value is listed as “about 60%”.
